Measured values published in US9738634B2, “Heterocyclic amide compound and herbicide” (SYNGENTA PARTICIPATIONS AG, priority 2013, dated 2017).

Assays:
Type in all cases: in vivo
green foxtail [1] = assay: Test Example 3: weedkilling efficacy through soil treatment; E: green foxtail; conditions: treatment dosage 315 g/ha
Summary of the method: (§1)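 Crop and weed responses were judged three weeks after a uniform surface spray of the water-diluted emulsion at the given g/ha rate. Seeds sat beneath about 1.5 cm of sterilized diluvial soil, and boxes stood in a greenhouse at 25 to 30° C.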

barnyard grass [2] = assay: Test Example 2: weedkilling efficacy, growth period weed treatment in the submerged state; A: barnyard grass; conditions: treatment dosage 252 g/ha
Summary of the method: (§2)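 Seedlings at 1-2 leaves in 4 cm-deep submerged alluvial soil received emulsion formulations on the water surface, dosed per hectare; effects were judged 3 weeks on.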

birds-eye speedwell [3] = assay: Test Example 4: weedkilling efficacy by foliar treatment; p: birds-eye speedwell; conditions: treatment dosage 315 g/ha
Summary of the method: (§3)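 Seeds are spot-sown into sterilized diluvial soil and covered with about 1.5 cm of soil. After 14 days' greenhouse growth at 25 to 30° C, plants are sprayed on stems and leaves with diluted emulsion at the stated g/ha rate, then scored at 3 weeks.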

barnyard grass [4] = assay: Test Example 1: weedkilling efficacy, preemergent weed treatment in the submerged state; A: barnyard grass; conditions: treatment dosage 252 g/ha
Summary of the method: (§4)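 Submerged pre-emergence treatment, water-surface application of compound emulsion at g/ha dosages; 4 cm flooded alluvial soil, weeds sown and 2.5-leaf rice transplanted same day. Rated after 3 weeks, greenhouse.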

black-grass [5] = assay: Test Example 3: weedkilling efficacy through soil treatment; H: black-grass; conditions: treatment dosage 315 g/ha
Summary of the method: as §1

fig-leafed goosefoot [6] = assay: Test Example 4: weedkilling efficacy by foliar treatment; M: fig-leafed goosefoot; conditions: treatment dosage 315 g/ha
Summary of the method: as §3

soybean [7] = assay: Test Example 4: foliar treatment, effect on crop; d: soybean; conditions: treatment dosage 315 g/ha
Summary of the method: as §3

wild oat [8] = assay: Test Example 4: weedkilling efficacy by foliar treatment; G: wild oat; conditions: treatment dosage 315 g/ha
Summary of the method: as §3

redroot pigweed [9] = assay: Test Example 4: weedkilling efficacy by foliar treatment; L: redroot pigweed; conditions: treatment dosage 315 g/ha
Summary of the method: as §3

catchweed [10] = assay: Test Example 3: weedkilling efficacy through soil treatment; O: catchweed; conditions: treatment dosage 315 g/ha
Summary of the method: as §1

fig-leafed goosefoot [11] = assay: Test Example 3: weedkilling efficacy through soil treatment; M: fig-leafed goosefoot; conditions: treatment dosage 315 g/ha
Summary of the method: as §1

black-grass [12] = assay: Test Example 4: weedkilling efficacy by foliar treatment; H: black-grass; conditions: treatment dosage 315 g/ha
Summary of the method: as §3

wheat [13] = assay: Test Example 3: soil treatment, effect on crop; e: wheat; conditions: treatment dosage 315 g/ha
Summary of the method: as §1

birds-eye speedwell [14] = assay: Test Example 3: weedkilling efficacy through soil treatment; p: birds-eye speedwell; conditions: treatment dosage 315 g/ha
Summary of the method: as §1

catchweed [15] = assay: Test Example 4: weedkilling efficacy by foliar treatment; O: catchweed; conditions: treatment dosage 315 g/ha
Summary of the method: as §3

bulrush [16] = assay: Test Example 2: weedkilling efficacy, growth period weed treatment in the submerged state; B: bulrush; conditions: treatment dosage 252 g/ha
Summary of the method: as §2

Indian mallow [17] = assay: Test Example 4: weedkilling efficacy by foliar treatment; K: Indian mallow; conditions: treatment dosage 315 g/ha
Summary of the method: as §3

oval-leafed pondweed [18] = assay: Test Example 2: weedkilling efficacy, growth period weed treatment in the submerged state; C: oval-leafed pondweed; conditions: treatment dosage 252 g/ha
Summary of the method: as §2

chickweed [19] = assay: Test Example 4: weedkilling efficacy by foliar treatment; N: chickweed; conditions: treatment dosage 315 g/ha
Summary of the method: as §3

corn [20] = assay: Test Example 4: foliar treatment, effect on crop; c: corn; conditions: treatment dosage 315 g/ha
Summary of the method: as §3

wild oat [21] = assay: Test Example 3: weedkilling efficacy through soil treatment; G: wild oat; conditions: treatment dosage 315 g/ha
Summary of the method: as §1

soybean [22] = assay: Test Example 3: soil treatment, effect on crop; d: soybean; conditions: treatment dosage 315 g/ha
Summary of the method: as §1

Italian ryegrass [23] = assay: Test Example 3: weedkilling efficacy through soil treatment; I: Italian ryegrass; conditions: treatment dosage 315 g/ha
Summary of the method: as §1

directly sown rice [24] = assay: Test Example 4: foliar treatment, effect on crop; b: directly sown rice; conditions: treatment dosage 315 g/ha
Summary of the method: as §3

crabgrass [25] = assay: Test Example 3: weedkilling efficacy through soil treatment; D: crabgrass; conditions: treatment dosage 315 g/ha
Summary of the method: as §1

corn [26] = assay: Test Example 3: soil treatment, effect on crop; c: corn; conditions: treatment dosage 315 g/ha
Summary of the method: as §1

wheat [27] = assay: Test Example 4: foliar treatment, effect on crop; e: wheat; conditions: treatment dosage 315 g/ha
Summary of the method: as §3

redroot pigweed [28] = assay: Test Example 3: weedkilling efficacy through soil treatment; L: redroot pigweed; conditions: treatment dosage 315 g/ha
Summary of the method: as §1

bulrush [29] = assay: Test Example 1: weedkilling efficacy, preemergent weed treatment in the submerged state; B: bulrush; conditions: treatment dosage 252 g/ha
Summary of the method: as §4

oval-leafed pondweed [30] = assay: Test Example 1: weedkilling efficacy, preemergent weed treatment in the submerged state; C: oval-leafed pondweed; conditions: treatment dosage 252 g/ha
Summary of the method: as §4

Italian ryegrass [31] = assay: Test Example 4: weedkilling efficacy by foliar treatment; I: Italian ryegrass; conditions: treatment dosage 315 g/ha
Summary of the method: as §3

crabgrass [32] = assay: Test Example 4: weedkilling efficacy by foliar treatment; D: crabgrass; conditions: treatment dosage 315 g/ha
Summary of the method: as §3

beet [33] = assay: Test Example 3: soil treatment, effect on crop; f: beet; conditions: treatment dosage 315 g/ha
Summary of the method: as §1

transplanted rice = assay: Test Example 1: preemergent weed treatment in the submerged state, effect on crop; a: transplanted rice; conditions: treatment dosage 252 g/ha
Summary of the method: as §4

directly sown rice [34] = assay: Test Example 3: soil treatment, effect on crop; b: directly sown rice; conditions: treatment dosage 315 g/ha
Summary of the method: as §1

green foxtail [35] = assay: Test Example 4: weedkilling efficacy by foliar treatment; E: green foxtail; conditions: treatment dosage 315 g/ha
Summary of the method: as §3

beet [36] = assay: Test Example 4: foliar treatment, effect on crop; f: beet; conditions: treatment dosage 315 g/ha
Summary of the method: as §3

Indian mallow [37] = assay: Test Example 3: weedkilling efficacy through soil treatment; K: Indian mallow; conditions: treatment dosage 315 g/ha
Summary of the method: as §1

chickweed [38] = assay: Test Example 3: weedkilling efficacy through soil treatment; N: chickweed; conditions: treatment dosage 315 g/ha
Summary of the method: as §1

CC1=C(c2ccccc2)C(=O)N(C(C)(C)C(=O)Nc2cncc(C(F)(F)F)c2)CO1 [B-3-03]
E (green foxtail) weedkilling efficacy grade (green foxtail [1]): 5 (weed kill ratio 90% or more, (practically complete withering)) | A (barnyard grass) weedkilling efficacy grade (barnyard grass [2]): 5 (weed kill ratio 90% or more, (practically complete withering)) | P (birds-eye speedwell) weedkilling efficacy grade (birds-eye speedwell [3]): 1 (weed kill ratio 5% or more, less than 20%) | A (barnyard grass) weedkilling efficacy grade (barnyard grass [4]): 5 (weed kill ratio 90% or more, (practically complete withering)) | H (black-grass) weedkilling efficacy grade (black-grass [5]): 5 (weed kill ratio 90% or more, (practically complete withering)) | M (fig-leafed goosefoot) weedkilling efficacy grade (fig-leafed goosefoot [6]): 2 (weed kill ratio 20% or more, less than 40%) | d (soybean) effect on crop grade (soybean [7]): 3 (weed kill ratio 40% or more, less than 70%) | G (wild oat) weedkilling efficacy grade (wild oat [8]): 4 (weed kill ratio 70% or more, less than 90%) | L (redroot pigweed) weedkilling efficacy grade (redroot pigweed [9]): 2 (weed kill ratio 20% or more, less than 40%) | O (catchweed) weedkilling efficacy grade (catchweed [10]): 0 (weed kill ratio 5% or less (practically no effect)) | M (fig-leafed goosefoot) weedkilling efficacy grade (fig-leafed goosefoot [11]): 1 (weed kill ratio 5% or more, less than 20%) | H (black-grass) weedkilling efficacy grade (black-grass [12]): 5 (weed kill ratio 90% or more, (practically complete withering)) | e (wheat) effect on crop grade (wheat [13]): 0 (weed kill ratio 5% or less (practically no effect)) | P (birds-eye speedwell) weedkilling efficacy grade (birds-eye speedwell [14]): 3 (weed kill ratio 40% or more, less than 70%) | O (catchweed) weedkilling efficacy grade (catchweed [15]): 0 (weed kill ratio 5% or less (practically no effect)) | B (bulrush) weedkilling efficacy grade (bulrush [16]): 5 (weed kill ratio 90% or more, (practically complete withering)) | K (Indian mallow) weedkilling efficacy grade (Indian mallow [17]): 2 (weed kill ratio 20% or more, less than 40%) | C (oval-leafed pondweed) weedkilling efficacy grade (oval-leafed pondweed [18]): 5 (weed kill ratio 90% or more, (practically complete withering)) | N (chickweed) weedkilling efficacy grade (chickweed [19]): 2 (weed kill ratio 20% or more, less than 40%) | c (corn) effect on crop grade (corn [20]): 4 (weed kill ratio 70% or more, less than 90%) | G (wild oat) weedkilling efficacy grade (wild oat [21]): 4 (weed kill ratio 70% or more, less than 90%) | d (soybean) effect on crop grade (soybean [22]): 0 (weed kill ratio 5% or less (practically no effect)) | I (Italian ryegrass) weedkilling efficacy grade (Italian ryegrass [23]): 5 (weed kill ratio 90% or more, (practically complete withering)) | b (directly sown rice) effect on crop grade (directly sown rice [24]): 5 (weed kill ratio 90% or more, (practically complete withering)) | D (crabgrass) weedkilling efficacy grade (crabgrass [25]): 5 (weed kill ratio 90% or more, (practically complete withering)) | c (corn) effect on crop grade (corn [26]): 4 (weed kill ratio 70% or more, less than 90%) | e (wheat) effect on crop grade (wheat [27]): 0 (weed kill ratio 5% or less (practically no effect)) | L (redroot pigweed) weedkilling efficacy grade (redroot pigweed [28]): 0 (weed kill ratio 5% or less (practically no effect)) | B (bulrush) weedkilling efficacy grade (bulrush [29]): 5 (weed kill ratio 90% or more, (practically complete withering)) | C (oval-leafed pondweed) weedkilling efficacy grade (oval-leafed pondweed [30]): 5 (weed kill ratio 90% or more, (practically complete withering)) | I (Italian ryegrass) weedkilling efficacy grade (Italian ryegrass [31]): 5 (weed kill ratio 90% or more, (practically complete withering)) | D (crabgrass) weedkilling efficacy grade (crabgrass [32]): 5 (weed kill ratio 90% or more, (practically complete withering)) | f (beet) effect on crop grade (beet [33]): 2 (weed kill ratio 20% or more, less than 40%) | a (transplanted rice) effect on crop grade (transplanted rice): 0 (weed kill ratio 5% or less (practically no effect)) | b (directly sown rice) effect on crop grade (directly sown rice [34]): 4 (weed kill ratio 70% or more, less than 90%) | E (green foxtail) weedkilling efficacy grade (green foxtail [35]): 5 (weed kill ratio 90% or more, (practically complete withering)) | f (beet) effect on crop grade (beet [36]): 0 (weed kill ratio 5% or less (practically no effect)) | K (Indian mallow) weedkilling efficacy grade (Indian mallow [37]): 0 (weed kill ratio 5% or less (practically no effect)) | N (chickweed) weedkilling efficacy grade (chickweed [38]): 0 (weed kill ratio 5% or less (practically no effect))
